Publication PMC12048447, “PANTAX: a phase Ib clinical trial of the efflux pump inhibitor SCO-101 in combination with gemcitabine and nab-paclitaxel in non-resectable or metastatic pancreatic cancer” (Investigational New Drugs, 2025)

Tested on: PANC-1-Pac cells
Test: MTT cell viability and ZIP synergy in paclitaxel-resistant PANC-1-Pac cells
Assay type: cell-based, human
Settings: 72 h with drug + 72 h fresh media
Excerpt: (§1) A paclitaxel-sensitive human PDAC cell line, PANC-1, was obtained (ATCC, CRL-1469) and the derived paclitaxel-resistant PANC-1-Pac cell line was established by gradually increasing concentrations of paclitaxel over a period of 2–4 months. Standard MTT and crystal violet assays were applied to evaluate the effect of treatment with either combinations of SCO-101 and paclitaxel or SRPK1-inhibitor and paclitaxel. Details are presented in the Online Resource.
Statistical analyses were mainly descriptive and included mean, median, range, and 95% CIs. Kaplan–Meier plots were constructed using Stata version 18 (StataCorp, 2023). In the preclinical study, the zero interaction potency (ZIP) synergy score was calculated as described by Yadav et al., to quantify the deviation from the expectation of zero interaction between drugs. A ZIP synergy score above 10 indicates synergy.
as §1, with “line PANC-1” for “line, PANC-1,”, “2-4” for “2–4”, “SCO-101/paclitaxel” for “SCO-101 and paclitaxel”, “SRPK1 inhibitor/paclitaxel.” for “SRPK1-inhibitor and paclitaxel. Details are presented in the Online Resource.”
The selection began at 1 nM, increased to 2 nM and 4 nM, and ended at 8 nM. For each drug concentration the cells were kept for three passages. To evaluate the effect of the treatment either a Crystal Violet assay or MTT (3-(4,5-dimethylthiazol-2-yl)-2,5-diphenyltetrazolium bromide) assay were applied.
The MTT was conducted according to standard conditions. In short, cells were seeded at a density of 7,000 cells/well into a 96-well. One day after seeding, the cells were experimentally treated. Control conditions consisted of either growth medium (‘untreated’) or DMSO diluted in growth medium. All treatments were performed in triplicates. The cells were then kept in the CO2 incubator at 37 °C for 72 hours and plates were incubated with 100μl 1:10 MTT (0.5 mg/ml dissolved in phosphate buffered saline) for 3 hours and hereafter stopped using 100μl/well stop buffer (50g Sodium Dodecyl Sulphate, 245 mL MiliQ H2O, 5mL 1.0 N HCl was added to dissolve the formazan crystals overnight. Optical densities were measured at 570 and 670 nm.
Experiments with 4 different concentrations of either SCO-101 or paclitaxel and their combinations were applied to test for synergy among these two compounds in both the PANC-1 parental and -Paclitaxel resistant cells. SCO-101 was applied in 10, 20, 40 and 50 µM whereas paclitaxel was tested in 5, 10, 15 and 20 nM for a total of 144 h, where drug was only present in the first 72h (sFig 2). The SRPK1 inhibitor SPHINX31 was tested at 0.1; 0.5; 1 and 5 µM. The SRPK1 inhibitor SRPIN was tested at 1; 5; 10 and 50 µM. Both inhibitors were tested in combination with 5, 10, 15 and 20 nM Paclitaxel.
PANC-1-Pac cells treated with paclitaxel and SRPIN340 with four different concentrations of each for a total of 144 hours. Cell viability was evaluated by MTT assays and reported as percentage of untreated control (medium). Error bars indicate percentage standard deviation.

Q: Which “effect on PANC-1-Pac cells (cell viability), drug alone” value does the source give for `O=C(Nc1cc(C(F)(F)F)cc(C(F)(F)F)c1)Nc1ccc(Br)cc1-c1nnn[nH]1` [SCO-101] here?
A: dose-dependent effect

Q: What about the “ZIP synergy score with paclitaxel” value (PANC-1-Pac cells, SCO-101 + paclitaxel, score above 10 indicates synergy) of the same compound?
A: 16.795
